Measurements from article PMC8580319, “Dual activities of ACC synthase: Novel clues regarding the molecular evolution of ACS genes” (Science Advances, 2021).

How the values were obtained:
[1] = target: AtACS7-R6 (AtACS7 in which BOX2 is replaced by PpACL1-BOX2) (Arabidopsis | Physcomitrella patens); assay: crystal structure; AtACS7-R6 with PPG (1 mM PLP and AVG added), hanging drop, 0.1 M Hepes pH 7.6, 6% PEG-10000; 2.95 Å; one dimer in the asymmetric unit
[2] = target: T1, AtACS7 (Arabidopsis thaliana, UniProt Q9STR4); assay: inhibition of Cβ-S lyase activity, pyruvate assay; type: biochemical; conditions: L-cystine 4 mM, 100 μM PLP, 30°C; forms adduct with PLP
T1 construct: gene ACS7; recombinant from E. coli Rosetta 2 (DE3) pLysS; pET-28a (His) or pGEX-6p-1 (GST); His-tagged protein for crystals; dimer
T1 sequence (Q9STR4 1-447): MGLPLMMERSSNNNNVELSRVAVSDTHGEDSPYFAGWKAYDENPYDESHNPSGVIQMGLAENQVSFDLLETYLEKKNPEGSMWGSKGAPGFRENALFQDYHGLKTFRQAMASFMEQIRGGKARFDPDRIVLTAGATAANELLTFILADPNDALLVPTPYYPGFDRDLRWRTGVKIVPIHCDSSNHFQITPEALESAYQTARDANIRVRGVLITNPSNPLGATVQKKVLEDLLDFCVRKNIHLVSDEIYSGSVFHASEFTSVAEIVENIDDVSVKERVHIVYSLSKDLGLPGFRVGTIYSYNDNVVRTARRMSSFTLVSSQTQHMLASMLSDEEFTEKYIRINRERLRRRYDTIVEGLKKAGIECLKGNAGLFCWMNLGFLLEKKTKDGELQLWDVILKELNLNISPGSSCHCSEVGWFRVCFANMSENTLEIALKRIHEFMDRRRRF

[3] = target: T2, AtACS7 (Arabidopsis thaliana, UniProt Q9STR4, D245N); assay: ACC formation, converted to ethylene, GC; type: biochemical; conditions: ACS activity, reduced; 0.4 mM SAM, pH 8.5, 30°C, 10 μM PLP
T2 construct: gene ACS7; recombinant from E. coli Rosetta 2 (DE3) pLysS; pET-28a (His) or pGEX-6p-1 (GST); His-tagged protein for crystals; dimer
T2 sequence (Q9STR4 1-447 D245N): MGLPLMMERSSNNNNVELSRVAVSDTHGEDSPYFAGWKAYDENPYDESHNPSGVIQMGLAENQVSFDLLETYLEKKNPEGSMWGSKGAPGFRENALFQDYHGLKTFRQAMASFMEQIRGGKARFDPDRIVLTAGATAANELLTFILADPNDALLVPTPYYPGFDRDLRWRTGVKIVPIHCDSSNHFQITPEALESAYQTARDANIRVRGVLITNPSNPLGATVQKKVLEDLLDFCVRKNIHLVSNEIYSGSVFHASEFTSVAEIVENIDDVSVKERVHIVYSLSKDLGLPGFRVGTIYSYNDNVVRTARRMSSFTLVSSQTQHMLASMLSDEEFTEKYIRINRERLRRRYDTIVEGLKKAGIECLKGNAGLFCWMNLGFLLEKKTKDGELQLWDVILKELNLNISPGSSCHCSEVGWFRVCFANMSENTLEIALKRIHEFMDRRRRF

[4] = target: T1, AtACS7; assay: Cβ-S lyase activity with and without PLP, pyruvate assay; type: biochemical; conditions: L-cystine 4 mM, 30°C
[5] = target: the molecule itself; assay: crystal structure; AtACS7 with PPG (1 mM PLP and AVG added), hanging drop, 0.1 M tris pH 8.6, 23% PEG-3350; 2.20 Å; four complexes as two dimers in the asymmetric unit

AtACS7-R6 (AtACS7 in which BOX2 is replaced by PpACL1-BOX2) (enzyme)
stoichiometry N [1]: 2

NCCO/C=C/[C@H](N)C(=O)O [AVG]
inhibition at 5 μM [2]: could be totally suppressed by adding AVG to the reaction mixture

C[S+](CC[C@H](N)C(=O)O)C[C@H]1O[C@@H](n2cnc3c(N)ncnc32)[C@H](O)[C@@H]1O (some centres unmarked) [SAM]
ACC formation, converted to ethylene, GC [3]: mutant still retained considerable, albeit reduced, ACS activity

Cc1ncc(COP(=O)(O)O)c(C=O)c1O [PLP]
Cβ-S lyase activity with and without PLP, pyruvate assay [4]: The Cβ-S lyase activity of AtACS7 was also PLP dependent

B1: Arabidopsis ACS7 (AtACS7), 1-aminocyclopropane-1-carboxylate (ACC) synthase 7 (enzyme)
chain: MGLPLMMERSSNNNNVELSRVAVSDTHGEDSPYFAGWKAYDENPYDESHNPSGVIQMGLAENQVSFDLLETYLEKKNPEGSMWGSKGAPGFRENALFQDYHGLKTFRQAMASFMEQIRGGKARFDPDRIVLTAGATAANELLTFILADPNDALLVPTPYYPGFDRDLRWRTGVKIVPIHCDSSNHFQITPEALESAYQTARDANIRVRGVLITNPSNPLGATVQKKVLEDLLDFCVRKNIHLVSDEIYSGSVFHASEFTSVAEIVENIDDVSVKERVHIVYSLSKDLGLPGFRVGTIYSYNDNVVRTARRMSSFTLVSSQTQHMLASMLSDEEFTEKYIRINRERLRRRYDTIVEGLKKAGIECLKGNAGLFCWMNLGFLLEKKTKDGELQLWDVILKELNLNISPGSSCHCSEVGWFRVCFANMSENTLEIALKRIHEFMDRRRRF
notes: ACC synthase 7 (AtACS7) of Arabidopsis thaliana, TAIR locus AT4G26200; vector pET-28a or pGEX-6p-1 per the methods, HisTrap purification points to the His form; also called wild-type AtACS7; source: E. coli BL21 [Rosetta 2 (DE3) plysS], purified (HisTrap, Hitrap Q HP ion exchange, Superdex 200 gel filtration)
stoichiometry N [5]: 2
